Source: paper PMC10354055, “An optimized Nurr1 agonist provides disease-modifying effects in Parkinson’s disease models” (Nature Communications, 2023)
Several values for one entry are separate records, joined by “and”; a condition that tells them apart may be missing. Equal entries are not always repeated.

Assays:
Nurr1 protein = Nurr1 protein level, Western blot, MN9D cells with MPP+ or αSyn overexpression; format: cell-based, mouse; details: against MPP+ and αSynWT overexpression
Procedure: Experiments were confirmed by duplicate measurements of the same sample. Quantification of immunoreactive bands was performed using ImageJ software (NIH, Bethesda, MD, USA) and expressed as a relative ratio against β-actin.
Lenti-GFP, -αSyn^WT, and -αSyn^A53T viruses were generated separately by co-transfecting each shuttle plasmid with lentivirus packaging plasmids into HEK293T cells using lipofectamine 2000 (Invitrogen). Briefly, 2 μg each FUW inducible shuttle plasmid, 2 μg FUW-rtTA, 2 μg psPax2 and 1.5 μg MD2.G were mixed and transfected into HEK293T cells. After 48 h, viral supernatants were collected and centrifuged at 1000g for 10 min, and subsequently filtered through a 0.45 μm filter. Lentiviruses were transduced into MN9D cells with 8 μg/ml of polybrene and the viral supernatant was removed and replaced with fresh medium a day after transduction.

N27-A cells [1] = experiment: Autophagolysosome (APL) formation assay, mRFP-GFP-LC3, N27-A cells; format: cell-based, rat
Procedure: HeLa and N27-A cells were transfected with tandem mRFP-GFP-LC3 (Addgene) plasmid using Lipofectamine 2000 (Invitrogen) in 24-well plates. After 24 h, cells were incubated in starvation medium (Earle’s Balanced Salt Solution, EBSS; Lonza) containing bafilomycin A1 (BafA1, 10 nM), CQ (20 µM), or 4A7C-301 (1 µM) for 6 h and then fixed with 4% formaldehyde for fluorescence detection. Images were taken using a KEYENCE microscope and red (mRFP) LC3 dots and yellow (mRFP+GFP) LC3 dots were counted from three independent wells for each treatment group. 10 cells were randomly selected and counted from each well and a total of 30 cells were analyzed for each treatment group in both HeLa and N27-A cells.

N27-A cells [2] = experiment: Mitochondrial activity assay, Seahorse XFp, N27-A cells; format: cell-based, rat; set-up: Seahorse time trace (OCR): unit not given here; details: for OCR changes after FCCP injection: MPP+ co-treatment, individual replicates (Supplementary Figure S1o); for Seahorse time trace (OCR) / ATP turnover: replicates; for ATP turnover: Fig. S1n, with MPP+
Procedure: Mitochondrial activity was measured using the Seahorse XFp analyzer (Agilent Technologies) according to the manufacturer’s instruction. Briefly, cells were plated onto wells of a XFp cell culture miniplate and incubated in a 37 °C incubator overnight. The assay was performed after cells were equilibrated for 1 h in XF assay medium supplemented with 10 mM D-glucose, 5 mM sodium pyruvate, and 2 mM glutamax in a non-CO2 incubator. Mitochondrial activity was monitored through sequential injections of 1 μM oligomycin, 2 μM carbonyl cyanide-4 (trifluoromethoxy) phenylhydrazone (FCCP) and 0.5 μM rotenone/antimycin A to calculate basal respiration (= baseline oxygen consumption rate (OCR)−rotenone/antimycin A OCR), maximal respiration (= FCCP OCR−rotenone/antimycin A OCR), ATP turnover (= baseline OCR−oligomycin OCR), and OCR changes after FCCP injection (= FCCP OCR−oligomycin OCR). Each plotted value was normalized to total protein quantified using a Bradford protein assay (Bio-Rad) and analyzed using the Seahorse WAVE Desktop software (Agilent Technologies).

[3] = test system: AAV-αSyn-induced male mice; experiment: Pole test, AAV-αSyn-induced PD model mice; format: in vivo, mouse; details: αSynWT and αSynA53T mice; CQ 40, 4A7C-301 5 mg/kg/day i.p.
Description: Adeno-associated viruses (AAVs) expressing GFP only or αSyn (wild-type or A53T) were kindly provided by Dr. Yoon Seong Kim from the University of Central Florida. Recombinant AAV vectors were produced using modified pAAV-IRES-hrGFP (Agilent) to express wild-type and mutant human αSyn under control of the CMV promoter. Viral particles (AAV2) were produced at the University of Iowa Viral Vector Core according to standard operating procedures (https://medicine.uiowa.edu/vectorcore/). […] AAV vectors were delivered into the substantia nigra unilaterally by stereotaxic surgery.
Mice were trained to descend a vertical metal rod wrapped with rough tape (80 cm high, 12 mm diameter) once per day for 2 days, and then the baseline was measured before the pole test (3 days before the MPTP injection or the first pole test at week 2). Mice were placed head-upward on the pole and total descent time was recorded.

Nurr1-LBD = molecular target: T1, Nurr1-LBD (Mus musculus, UniProt Q06219); experiment: Luciferase reporter assay, Nurr1-LBD, SK-N-BE(2)C cells; format: cell-based
T1 construct: transfected with pCMV-fNurr1, pGAL-Nurr1(LBD), pGAL-Nor1(LBD) or pGAL-Nur77(LBD) and reporter construct; expressed in transfected cells; host or cells: SK-N-BE(2)C (human neuroblastoma), N27-A (rat dopaminergic), MN9D (murine dopaminergic)
T1 sequence (Q06219 360-595 limits assumed): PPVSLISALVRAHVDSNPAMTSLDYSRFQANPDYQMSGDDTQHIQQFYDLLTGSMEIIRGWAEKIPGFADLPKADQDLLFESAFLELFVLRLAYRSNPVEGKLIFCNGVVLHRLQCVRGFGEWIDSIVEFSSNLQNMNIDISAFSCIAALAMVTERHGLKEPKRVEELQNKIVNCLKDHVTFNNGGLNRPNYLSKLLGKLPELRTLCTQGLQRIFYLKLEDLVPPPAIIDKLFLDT
Description: Nurr1 transactivity was normalized to β-galactosidase activity.

[4] = Figure 3b, mRFP-GFP-LC3, individual cells (30 per treatment)

For `CCN(CC)CCCC(C)Nc1ccnc2cc(Cl)ccc12` (centres unmarked) [CQ, chloroquine], the “Nurr1 protein levels (in words)” value (Nurr1 protein) was “significantly restored”, the “LC3 dots/cell, Red LC3 dots” value (N27-A cells [1]; [4]) was 6 dots/cell (4×) and 7 dots/cell (5×) and 11 dots/cell (6×) and 10 dots/cell (2×) and 5 dots/cell (3×) and 15 dots/cell (2×) and 4 dots/cell (2×) and 8 dots/cell (2×) and 13 dots/cell and 17 dots/cell and 9 dots/cell and 2 dots/cell and the “LC3 dots/cell, Yellow LC3 dots” value (N27-A cells [1]; [4]) was 25 dots/cell (2×) and 30 dots/cell (6×) and 28 dots/cell (3×) and 20 dots/cell and 17 dots/cell (3×) and 21 dots/cell (4×) and 19 dots/cell and 22 dots/cell (2×) and 23 dots/cell (2×) and 18 dots/cell (2×) and 16 dots/cell and 29 dots/cell (2×) and 31 dots/cell. For the same molecule, the “autophagy process (in words)” value (N27-A cells [1]; N27-A, EBSS, CQ 20 µM, 4A7C-301 1 µM) was “inhibits”, the “OXPHOS capacity reduced by MPP+ (in words)” value (N27-A cells [2]; CQ 100 µM, 4A7C-301 1 µM) was “efficiently restored” and the “OCR changes after FCCP injection” value (N27-A cells [2]; Control N27-A cells) was 8.55 pmol/min/µg protein and 7.31 pmol/min/µg protein and 2.32 pmol/min/µg protein and 23.52 pmol/min/µg protein. For the same molecule, the “Seahorse time trace (OCR)” value (N27-A cells [2]; Fig. S1j/k, Control + MPP+, time 2 min) was 3.66 and 2.51 and 27.76, the “Seahorse time trace (OCR)” value (N27-A cells [2]; Fig. S1j/k, Control + MPP+, time 8 min) was 3.46 and 2.01 and 20.11 and the “Seahorse time trace (OCR)” value (N27-A cells [2]; Fig. S1j/k, Control + MPP+, time 15 min) was 2.32 and 1.98 and 22.16 and 9.29. The “Seahorse time trace (OCR)” value (N27-A cells [2]; Fig. S1j/k, Control + MPP+, time 21 min) was 0.27 and 19.75 and 5.17, the “Seahorse time trace (OCR)” value (N27-A cells [2]; Fig. S1j/k, Control + MPP+, time 28 min) was 0.58 and 1.26 and 17.08 and 5.33 and the “Seahorse time trace (OCR)” value (N27-A cells [2]; Fig. S1j/k, Control + MPP+, time 34 min) was 0.71 and 18.32 and 7.16. The “Seahorse time trace (OCR)” value (N27-A cells [2]; Fig. S1j/k, Control + MPP+, time 41 min) was 7.58 and 3.41 and 40.6 and 13.72, the “Seahorse time trace (OCR)” value (N27-A cells [2]; Fig. S1j/k, Control + MPP+, time 47 min) was 6.82 and 3.28 and 39.31 and the “Seahorse time trace (OCR)” value (N27-A cells [2]; Fig. S1j/k, Control + MPP+, time 54 min) was 6.13 and 3.21 and 37.92 and 10.02. For the same molecule, the “Seahorse time trace (OCR)” value (N27-A cells [2]; Fig. S1j/k, Control + MPP+, time 61 min) was 0.03 and 1.24 and 16.5 and 4.04, the “Seahorse time trace (OCR)” value (N27-A cells [2]; Fig. S1j/k, Control + MPP+, time 67 min) was 0.55 and 1.35 and 12.69 and 5.31 and the “Seahorse time trace (OCR)” value (N27-A cells [2]; Fig. S1j/k, Control + MPP+, time 74 min) was 1.39 and 17 and 5.99. The “Seahorse time trace (OCR)” value (N27-A cells [2]; Fig. S1j, Nurr1 OE + MPP+, time 2 min) was 26.25 and 15.29, the “Seahorse time trace (OCR)” value (N27-A cells [2]; Fig. S1j, Nurr1 OE + MPP+, time 8 min) was 18.52 and 15.98 and the “Seahorse time trace (OCR)” value (N27-A cells [2]; Fig. S1j, Nurr1 OE + MPP+, time 15 min) was 20.57 and 30.55 and 13.93. The “Seahorse time trace (OCR)” value (N27-A cells [2]; Fig. S1j, Nurr1 OE + MPP+, time 21 min) was 5.95 and 6.99 and 4.75 and 6.7, the “Seahorse time trace (OCR)” value (N27-A cells [2]; Fig. S1j, Nurr1 OE + MPP+, time 28 min) was 5.18 and 6.25 and 5.44 and 7.19 and the “Seahorse time trace (OCR)” value (N27-A cells [2]; Fig. S1j, Nurr1 OE + MPP+, time 34 min) was 4.78 and 5.8 and 5.34 and 7.96. The “Seahorse time trace (OCR)” value (N27-A cells [2]; Fig. S1j, Nurr1 OE + MPP+, time 41 min) was 28.78 and 44.27 and 30.42, the “Seahorse time trace (OCR)” value (N27-A cells [2]; Fig. S1j, Nurr1 OE + MPP+, time 47 min) was 28.4 and 36.09 and 14.17 and the “Seahorse time trace (OCR)” value (N27-A cells [2]; Fig. S1j, Nurr1 OE + MPP+, time 54 min) was 26.28 and 35.06 and 18.57 and 28.22. For the same molecule, the “Seahorse time trace (OCR)” value (N27-A cells [2]; Fig. S1j, Nurr1 OE + MPP+, time 61 min) was 4.76 and 5.21 and 0.65 and 4.3, the “Seahorse time trace (OCR)” value (N27-A cells [2]; Fig. S1j, Nurr1 OE + MPP+, time 67 min) was 4.21 and 5.44 and 0.96 and 4.79 and the “Seahorse time trace (OCR)” value (N27-A cells [2]; Fig. S1j, Nurr1 OE + MPP+, time 74 min) was 4.26 and 6.26 and 5.01. For the same molecule, the “Seahorse time trace (OCR)” value (N27-A cells [2]; Fig. S1k, Nurr1 KD + MPP+, time 2 min) was 19.09 and 7.42 and 5.75 and 10.38, the “Seahorse time trace (OCR)” value (N27-A cells [2]; Fig. S1k, Nurr1 KD + MPP+, time 8 min) was 18.47 and 7.53 and 4.86 and 8.38 and the “Seahorse time trace (OCR)” value (N27-A cells [2]; Fig. S1k, Nurr1 KD + MPP+, time 15 min) was 15.57 and 7.6 and 4.41 and 7.39. For the same molecule, the “Seahorse time trace (OCR)” value (N27-A cells [2]; Fig. S1k, Nurr1 KD + MPP+, time 21 min) was 1.43 and 1.21, the “Seahorse time trace (OCR)” value (N27-A cells [2]; Fig. S1k, Nurr1 KD + MPP+, time 28 min) was 13.44 and 8.97 and 1.24 and the “Seahorse time trace (OCR)” value (N27-A cells [2]; Fig. S1k, Nurr1 KD + MPP+, time 34 min) was 8.6. For the same molecule, the ATP turnover (N27-A cells [2]; Control cells) was 6.76 pmol/min/µg protein and 3.39 pmol/min/µg protein and 1.42 pmol/min/µg protein and 10.68 pmol/min/µg protein, the ATP turnover (N27-A cells [2]; Nurr1 KD cells) was 7.63 pmol/min/µg protein and -1 pmol/min/µg protein and 4.86 pmol/min/µg protein and 9.17 pmol/min/µg protein and the ATP turnover (N27-A cells [2]; Nurr1 OE cells) was 19.32 pmol/min/µg protein and 24.75 pmol/min/µg protein and 13.77 pmol/min/µg protein and 18.27 pmol/min/µg protein. For the same molecule, the “OCR changes after FCCP injection” value (N27-A cells [2]; Nurr1 KD N27-A cells) was 12.59 pmol/min/µg protein and 4.43 pmol/min/µg protein and 9.84 pmol/min/µg protein and 17.76 pmol/min/µg protein, the “OCR changes after FCCP injection” value (N27-A cells [2]; Nurr1 OE N27-A cells) was 24 pmol/min/µg protein and 37.47 pmol/min/µg protein and 12.22 pmol/min/µg protein and 23.73 pmol/min/µg protein and the “motor deficits, pole test (in words)” value [3] was “partial recovery”. For the same molecule, the EC50 (Nurr1-LBD; Nurr1-LBD and full-length Nurr1, SK-N-BE(2)C cells, Fig. 1d,e) was 50 to 70 µM and the EC50 (Nurr1-LBD; Nurr1 activation, Supplementary Table 1, values in µM) was 50.2 µM.
